ChEMBL document CHEMBL3039007, “Structure-based identification of OATP1B1/3 inhibitors” (Mol Pharmacol, 2013)

How the values were obtained:
[1] = biological target: T1, Solute carrier organic anion transporter family member 1B3 (Homo sapiens, UniProt Q9NPD5); details: chinese hamster, cho, 10 µM
T1 sequence (Q9NPD5 whole entry): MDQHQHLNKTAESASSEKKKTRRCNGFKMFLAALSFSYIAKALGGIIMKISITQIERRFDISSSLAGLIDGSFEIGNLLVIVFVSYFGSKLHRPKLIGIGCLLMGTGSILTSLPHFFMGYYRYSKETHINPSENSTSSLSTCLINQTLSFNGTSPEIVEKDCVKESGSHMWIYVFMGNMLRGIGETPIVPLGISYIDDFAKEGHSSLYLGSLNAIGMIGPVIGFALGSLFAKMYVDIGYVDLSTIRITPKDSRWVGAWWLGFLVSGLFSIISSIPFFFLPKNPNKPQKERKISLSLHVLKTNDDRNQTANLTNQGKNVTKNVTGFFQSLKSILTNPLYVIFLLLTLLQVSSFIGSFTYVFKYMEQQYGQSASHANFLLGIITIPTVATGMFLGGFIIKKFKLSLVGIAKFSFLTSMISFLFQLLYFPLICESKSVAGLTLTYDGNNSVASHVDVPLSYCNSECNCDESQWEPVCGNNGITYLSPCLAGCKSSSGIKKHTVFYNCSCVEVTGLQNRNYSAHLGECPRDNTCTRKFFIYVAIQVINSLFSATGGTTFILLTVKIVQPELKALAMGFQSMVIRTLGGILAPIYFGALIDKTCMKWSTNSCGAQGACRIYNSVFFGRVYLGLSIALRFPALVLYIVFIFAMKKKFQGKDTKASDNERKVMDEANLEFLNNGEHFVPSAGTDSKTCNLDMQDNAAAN

[2] = biological target: T2, Solute carrier organic anion transporter family member 1B1 (Homo sapiens, UniProt Q9Y6L6); details: chinese hamster, cho, 10 µM
T2 sequence (Q9Y6L6 whole entry): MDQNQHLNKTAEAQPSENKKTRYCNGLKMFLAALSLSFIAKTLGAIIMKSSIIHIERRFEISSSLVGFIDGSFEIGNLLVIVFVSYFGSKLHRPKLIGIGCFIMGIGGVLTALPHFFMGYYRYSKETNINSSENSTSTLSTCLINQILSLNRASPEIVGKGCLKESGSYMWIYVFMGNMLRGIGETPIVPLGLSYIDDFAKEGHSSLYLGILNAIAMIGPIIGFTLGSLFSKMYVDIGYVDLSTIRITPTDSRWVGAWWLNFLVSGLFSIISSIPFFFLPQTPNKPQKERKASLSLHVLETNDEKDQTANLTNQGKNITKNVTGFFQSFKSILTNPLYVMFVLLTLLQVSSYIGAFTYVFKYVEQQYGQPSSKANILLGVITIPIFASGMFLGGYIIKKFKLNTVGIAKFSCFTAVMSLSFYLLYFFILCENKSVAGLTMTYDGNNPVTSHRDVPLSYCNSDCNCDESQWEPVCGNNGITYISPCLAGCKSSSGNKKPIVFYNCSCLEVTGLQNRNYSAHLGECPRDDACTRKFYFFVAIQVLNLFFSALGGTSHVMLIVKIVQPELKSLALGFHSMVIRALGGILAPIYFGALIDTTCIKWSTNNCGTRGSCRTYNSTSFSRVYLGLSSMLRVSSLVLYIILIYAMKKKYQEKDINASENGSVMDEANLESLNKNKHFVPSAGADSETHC

| Compound | residual activity [1] [%] | residual activity [2] [%] |
| --- | --- | --- |
| C=CC(N)CCC(=O)O (configuration not stated) [VIGABATRIN] | 94.41 | 78.69 |
| C[C@](N)(Cc1ccc(O)c(O)c1)C(=O)O [METHYLDOPA] | 103.5 | 111.3 |
| CC(=O)O[C@]1(C(C)=O)CC[C@H]2[C@@H]3C=C(C)C4=CC(=O)CC[C@]4(C)[C@H]3CC[C@@]21C [MEGESTROL ACETATE] | 93.03 | 50.69 |
| COc1cccc(OC)c1C(=O)N[C@@H]1C(=O)N2[C@@H]1SC(C)(C)[C@@H]2C(=O)[O-].[Na+] | 108.8 | 68.38 |
| C[C@@H]1CC[C@]2(NC1)O[C@H]1C[C@H]3[C@@H]4CC=C5C[C@@H](O)CC[C@]5(C)[C@H]4CC[C@]3(C)[C@H]1[C@@H]2C [SOLASODINE] | 113.6 | 91.83 |
| S=P(N1CC1)(N1CC1)N1CC1 [THIOTEPA] | 70.43 | 67.53 |
| C[C@@H]1CC(Cl)CC[C@H]1C(=O)OC(C)(C)C.C[C@@H]1CCC(Cl)C[C@H]1C(=O)OC(C)(C)C (some centres not stated) | 115.1 | 121 |
| NS(=O)(=O)c1cc(C2(O)NC(=O)c3ccccc32)ccc1Cl (configuration not stated) [CHLORTHALIDONE] | 67.04 | 62.41 |
| CC(=O)OCC(=O)[C@@]1(O)CC[C@H]2[C@@H]3CCC4=CC(=O)CC[C@]4(C)[C@H]3C(=O)C[C@@]21C [CORTISONE ACETATE] | 98.8 | 103.3 |
| NCCCC(=O)O [GAMMA-AMINOBUTYRIC ACID] | 81.28 | 56.63 |
| O[C@H]1[C@H]2c3cc4c(cc3CN3CCC(=C[C@@H]1O)[C@H]23)OCO4 [LYCORINE] | 97.14 | 60.96 |
| O=C(O)COc1ccc(Cl)cc1Cl [2,4-DICHLOROPHENOXYACETIC ACID] | 104.1 | 111.6 |
| C=C1CC[C@@H]2[C@](C)(CO)[C@H](O)CC[C@@]2(C)[C@@H]1C/C=C1/C(=O)OC[C@H]1O [ANDROGRAPHOLIDE] | 84.72 | 80.16 |
| O=C(O)[C@@H](O)[C@H](O)[C@H](O)[C@@H](O)C(=O)O [MUCIC ACID] | 98.98 | 109 |
| C[C@]12CC[C@@H]3c4ccc(O)cc4CC[C@H]3[C@@H]1CC[C@@H]2O [ESTRADIOL] | 131.9 | 125.9 |
| CCCCCCCCCc1ccc(O)cc1 [4-NONYLPHENOL] | 184.2 | 140.8 |
| CC1(C)O[C@@H]2C[C@H]3[C@@H]4C[C@H](F)C5=CC(=O)CC[C@]5(C)[C@H]4[C@@H](O)C[C@]3(C)[C@]2(C(=O)CO)O1 [FLURANDRENOLIDE] | 99.16 | 129.2 |
| CC1(C)S[C@@H]2[C@H](NC(=O)C(C(=O)[O-])c3ccccc3)C(=O)N2[C@H]1C(=O)[O-].[Na+].[Na+] (some centres not stated) [CARBENICILLIN DISODIUM] | 100.7 | 108.5 |
| CN(C)CCOC(=O)COc1ccc(Cl)cc1.Cl [CENTROPHENOXINE HYDROCHLORIDE] | 88.3 | 70.12 |
| CC(=O)N(O)CCCCCNC(=O)CCC(=O)N(O)CCCCCNC(=O)CCC(=O)N(O)CCCCCN.CS(=O)(=O)O [DEFEROXAMINE MESYLATE] | 98.92 | 116.4 |
| C[N+]1(C)[C@@H]2C[C@@H](OC(=O)[C@H](CO)c3ccccc3)C[C@H]1[C@@H]1O[C@@H]12.[Br-] [METHSCOPOLAMINE BROMIDE] | 92.61 | 104.8 |
| C[C@H](N)CO [L-ALANINOL] | 104 | 73.39 |
| Cl.OCCN1CCN(CCCN2c3ccccc3Sc3ccc(C(F)(F)F)cc32)CC1 | 93.03 | 153.1 |

| Compound | residual activity [1] [%] | residual activity [2] [%] |
| --- | --- | --- |
| O=[N+]([O-])O[C@H]1CO[C@H]2[C@@H]1OC[C@H]2O[N+](=O)[O-] [ISOSORBIDE DINITRATE] | 114.2 | 86.27 |
| CCOc1ccc2ccccc2c1C(=O)N[C@@H]1C(=O)N2[C@@H]1SC(C)(C)[C@@H]2C(=O)[O-].O.[Na+] [NAFCILLIN SODIUM] | 114.4 | 74.51 |
| COc1cc(O)c2c(=O)cc(-c3ccc(OC)c(-c4c(O)cc(O)c5c(=O)cc(-c6ccc([O-])cc6)oc45)c3)oc2c1.[K+] [GINKGETIN, K salt] | 46.72 | 46.45 |
| COc1cccc2c1cc([N+](=O)[O-])c1c(C(=O)O)cc3c(c12)OCO3 [ARISTOLOCHIC ACID] | 107.6 | 76.91 |
| N[C@@H](C(=O)N[C@@H]1C(=O)N2C(C(=O)O)=C(Cl)CS[C@H]12)c1ccccc1 [CEFACLOR ANHYDROUS] | 114.4 | 84.74 |
| C=C1CCC2C(CC2(C)C)C(=O)CCC1O (configuration not stated) [ISOKOBUSONE] | 82.48 | 93.72 |
| COC(=O)CC1C(C)(C)C(OC(C)=O)[C@@H]2[C@@H](OC(C)=O)[C@]34O[C@@]2(O)[C@]1(C)C3CC[C@]1(C)C4=CC(=O)O[C@H]1c1ccoc1 (some centres not stated) [XYLOCARPUS A] | 9.764 | 22.54 |
| Cl.FC(F)(F)c1cccc(N2CCNCC2)c1 [N- (3-TRIFLUOROMETHYLPHENYL)PIPERAZINE HYDROCHLORIDE (TFMPP)] | 80.23 | 106.1 |
| OCc1c[nH]c2ccccc12 [INDOLE-3-CARBINOL] | 121.9 | 88.32 |
| COc1cc2c(cc1-c1coc3c4c(c(OC)cc3c1=O)OC(C)(C)C=C4)OCO2 [ICHTHYNONE] | 118.8 | 105.6 |
| CC[C@]12CCCN3CCc4c(n(c5ccccc45)C(=O)C1)[C@@H]32 [VINBURNINE] | 115.3 | 97.38 |
| O=C([O-])c1ccccc1O.[Na+] [SODIUM SALICYLATE] | 80.83 | 55.28 |
| Cl.Clc1ccc(C(OCCN2CCCCC2)c2ccccc2)cc1 (configuration not stated) [CLOPERASTINE HYDROCLORIDE] | 89.01 | 53.44 |
| O=C(/C=C(\O)c1ccccc1)c1ccccc1O [2',beta-DIHYDROXYCHALCONE] | 97.75 | 95.04 |
| COc1ccc(CN(CCN(C)C)c2ncccn2)cc1.Cl [THONZYLAMINE HYDROCHLORIDE] | 91.98 | 88.59 |
| C=CCc1cc(OC)c2c(c1OC)OCO2 [APIOL] | 107.2 | 213.1 |
| Oc1cccc(O)c1 [RESORCINOL] | 104.2 | 89.71 |
| O=C(O)c1cc(O)c2c(c1)[C@H]([C@H]1c3cc(C(=O)O)cc(O)c3C(=O)c3c(O[C@@H]4O[C@H](CO)[C@@H](O)[C@H](O)[C@H]4O)cccc31)c1cccc(O[C@@H]3O[C@H](CO)[C@@H](O)[C@H](O)[C@H]3O)c1C2=O [Sennoside A] | 111.1 | 122.9 |
| Nc1cc(N2CCCCC2)nc(N)[n+]1[O-] [MINOXIDIL] | 92.39 | 93.9 |
| O=C(Cc1cccs1)N[C@@H]1C(=O)N2C(C(=O)[O-])=C(C[n+]3ccccc3)CS[C@H]12 [CEPHALORIDINE] | 31.99 | 14.22 |
| CCN(CC)CCNC(=O)c1cc(S(C)(=O)=O)ccc1OC.Cl [TIAPRIDE HYDROCHLORIDE] | 94.93 | 106.2 |
| Nc1ncnc2nc[nH]c12 [ADENINE] | 81.98 | 90.14 |
| COc1c2occc2c(OC)c2c(=O)cc(C)oc12 [KHELLIN] | 102.2 | 83.15 |
